# Assay results: patent US20240199661A1, “BICYCLIC HETEROARYL PHOSPHONATE DERIVATIVES AS ECTONUCLEOTIDE PYROPHOSPHATASE PHOSPHODIESTERASE 1 INHIBITORS” (RIBOSCIENCE LLC, priority 2021, published 2024)
# Counter-ions that a name gives are not always drawn.
# System: HGS tumor model
# Assay: Anti-tumor activity in HGS tumor model
# Type: in vivo
# Conditions: 20/kg of compound
row,SMILES,antitumor activity
1,"C=CC(=O)N1CCN(CCCn2c(=O)c(-c3c(Cl)c(OC)cc(OC)c3Cl)cc3cnc(NC)nc32)CC1 [8-(3-(4-acryloylpiperazin-1-yl)propyl)-6-(2,6-dichloro-3,5-dimethoxyphenyl)-2-(methylamino)pyrido[2,3-d]pyrimidin-7(8H)-one]",significant antitumor activity and induced tumor regression

# Same assay, conditions: animals treated with 20/kg of compound, day 42 after inoculation (vehicle 645)
row,SMILES,tumor size [mm3]
1,"C=CC(=O)N1CCN(CCCn2c(=O)c(-c3c(Cl)c(OC)cc(OC)c3Cl)cc3cnc(NC)nc32)CC1 [8-(3-(4-acryloylpiperazin-1-yl)propyl)-6-(2,6-dichloro-3,5-dimethoxyphenyl)-2-(methylamino)pyrido[2,3-d]pyrimidin-7(8H)-one]",55

# Target: T1, ENPP1 (Homo sapiens, UniProt P22413)
# T1 sequence (P22413 1-925): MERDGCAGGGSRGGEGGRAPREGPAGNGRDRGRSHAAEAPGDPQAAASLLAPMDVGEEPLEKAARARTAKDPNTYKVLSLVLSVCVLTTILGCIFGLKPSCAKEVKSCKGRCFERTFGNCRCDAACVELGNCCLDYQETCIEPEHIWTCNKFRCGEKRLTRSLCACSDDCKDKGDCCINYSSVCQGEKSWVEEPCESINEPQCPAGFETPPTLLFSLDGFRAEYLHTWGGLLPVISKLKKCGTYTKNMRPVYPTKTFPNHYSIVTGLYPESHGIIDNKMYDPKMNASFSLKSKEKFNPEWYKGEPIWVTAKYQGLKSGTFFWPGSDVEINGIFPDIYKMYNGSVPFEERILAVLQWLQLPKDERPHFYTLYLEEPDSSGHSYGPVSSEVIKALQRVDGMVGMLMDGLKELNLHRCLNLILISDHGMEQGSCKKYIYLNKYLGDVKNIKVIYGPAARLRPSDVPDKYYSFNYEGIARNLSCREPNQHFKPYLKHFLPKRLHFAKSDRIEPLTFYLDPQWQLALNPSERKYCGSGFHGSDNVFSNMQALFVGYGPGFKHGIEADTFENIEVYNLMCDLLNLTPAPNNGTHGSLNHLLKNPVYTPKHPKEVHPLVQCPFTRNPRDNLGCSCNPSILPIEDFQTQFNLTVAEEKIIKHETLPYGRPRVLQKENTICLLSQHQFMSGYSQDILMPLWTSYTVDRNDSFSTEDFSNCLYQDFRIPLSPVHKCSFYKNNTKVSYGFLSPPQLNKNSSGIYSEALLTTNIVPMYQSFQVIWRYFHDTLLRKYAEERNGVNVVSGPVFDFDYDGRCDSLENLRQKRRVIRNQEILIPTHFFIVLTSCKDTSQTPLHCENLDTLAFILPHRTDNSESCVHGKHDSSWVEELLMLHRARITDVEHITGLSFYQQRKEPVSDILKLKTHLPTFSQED
# Assay: Measurement of pNP-TMP hydrolysis by ENPP1 (enzyme activity assay, absorbance at 405 nm)
# Type: biochemical
# Conditions: purified ENPP1, 500 μM pNP-TMP, Km 232 μM; Ki from IC50 by Cheng-Prusoff
# Procedure: Measurement of pNP-TMP Hydrolysis by ENPP1
# p-Nitrophenyl thymidine 5′-monophosphate (pNP-TMP) is a synthesized substrate for ENPP1. The ENPP1 enzyme activity assay with pNP-TMP substrate was conducted as follows:
# First, in a 60 μl reaction, 7.5 ng purified ENPP1 was mixed with compounds of Formula (I) (test compound) ranging from 13.7 pM to 10 μM. Incubation of ENPP1 with compounds was set at 25° C. for 10 min. Reactions with DMSO only (with ENPP1 but no compound) gave the fastest reaction (MAX Activity). For each compound dilution, wells with assay buffer (50 mM Tris-HCl, pH8.8, 250 mM NaCl, 0.1 mg/ml BSA, 1% DMSO) only but no ENPP1 were included as controls for subtraction of test compound derived absorbance at 405 nm.
# Second, after the 10 minutes ENPP1 and test compound incubation the assay was initiated by transferring 50 μl of the above mentioned ENPP1/test compound reaction into 50 μl of 1 mM pNP-TMP in assay buffer results in a 100 μl total reaction in clear bottom 96 well plates. Absorbance at 405 nm was recorded immediately in kinetic mode by PerkinElmer 2300 Enspire multimode plate reader.
# For each inhibitor, the specific ENPP1 activity was calculated using the following equation: ENPP1 activity (pmol/min/μg)=Adjusted Vmax (OD405 nm/min)×conversion factor (pmol/OD405 nm)/amount of enzyme (μg)
# Adjusted Vmax=V0×(Km+(S))/(S). In this assay, Km=232 μM, (S)=500 μM. Adjusted Vmax=1.464×V0.
# V0=(OD405 nm with ENPP1−OD405 nm ENPP1 blank)/minutes. OD405 nm was plotted, with blank subtracted, against time (minutes), the initial linear rate is V0. […]
# The conversion factor (pmol/OD405 nm), was determined by plotting the amount of standard, 4-Nitrophenol (Sigma-Aldrich, Catalog #241326), against absorbance at 405 nm. The slope is the conversion factor. The percent ENPP1 activity for each sample was calculated using the following equation:
# % enzyme activity=sample enzyme activity/MAX Activity×100%.
# To determine the IC50 for each compound, compound concentration values and percent enzyme activity values were inserted into GraphPad Prism (GraphPad Prism version 7.0 for Windows, GraphPad Software, La Jolla California USA, www.graphpad.com), and Prism's Transform analysis was used to convert the x-axis values (compound concentration) to logarithms. A sigmoidal variable slope nonlinear regression analysis was performed using the following equation: Y=Bottom+(Top−Bottom)/(1+10^((Log IC50−X)*HillSlope)).
# Ki values for each compound were calculated from the observed IC50 from GraphPad analysis using the Cheng-Prusoff equation: Ki=IC50/(1+(S)/KM). (S) here is 500 μM and KM is determined to be 232 μM.
row,SMILES,Ki [nM]
1,"CCOP(=O)(CC1CCN(c2ncnc3c(C(=O)NC)c[nH]c23)CC1)OCC (single isomer, unassigned) [Compound 7, diethyl [1-[7-(methylcarbamoyl)-5H-pyrrolo[3,2-d]pyrimidin-4-yl]-piperidin-4-yl]methylphosphonate]",> 10000
2,"Cn1ncc2ncnc(NCc3ccc(P(=O)(O)O)cc3)c21 [Compound 1, 4-[([1-methylpyrazolo[4,3-d]pyrimidin-7-yl]amino)methyl]-phenyl-phosphonic acid]",< 100
3,"CCOP(=O)(O)c1ccc(CNc2ncnc3c(C(=O)NC)c[nH]c23)cc1 [Compound 2, ethoxy(4-([[7-(methylcarbamoyl)-5H-pyrrolo[3,2-d]pyrimidin-4-yl]-amino]methyl)phenyl)phosphinic acid]",> 10000
4,"CNC(=O)c1c[nH]c2c(NCc3ccc(P(=O)(O)O)cc3)ncnc12 [Compound 3, 4-([[7-(methylcarbamoyl)-5H-pyrrolo[3,2-d]pyrimidin-4-yl]amino]-methyl)phenylphosphonic acid]",< 1000
5,"CNC(=O)c1c[nH]c2c(NCc3ccc(CP(=O)(O)O)cc3)ncnc12 [Compound 4, [4-([[7-(methylcarbamoyl)-5H-pyrrolo[3,2-d]pyrimidin-4-yl]amino]-methyl)phenyl]methylphosphonic acid]",< 1000
6,"CNC(=O)c1c[nH]c2c(N3CCC(CCP(=O)(O)O)CC3)ncnc12 [Compound 6, 2-[1-[7-(methylcarbamoyl)-5H-pyrrolo[3,2-d]pyrimidin-4-yl]-piperidin-4-yl]ethylphosphonic acid]",< 1000
7,"CNC(=O)c1c[nH]c2c(N3CCC(CP(=O)(O)O)CC3)ncnc12 [Compound 9, [1-[7-(methylcarbamoyl)-5H-pyrrolo[3,2-d]pyrimidin-4-yl]piperidin-4-yl]methylphosphonic acid]",< 1000
8,"CCOP(=O)(O)CCCC1CCN(c2ncnc3c(C(=O)NC)c[nH]c23)CC1 [Compound 10, ethoxy(3-[1-[7-(methylcarbamoyl)-5H-pyrrolo[3,2-d]pyrimidin-4-yl]-piperidin-4-yl]propyl)phosphinic acid]",> 10000
9,"CNC(=O)c1c[nH]c2c(N3CCC(CCCP(=O)(O)O)CC3)ncnc12 [Compound 11, 3-[1-[7-(methylcarbamoyl)-5H-pyrrolo[3,2-d]pyrimidin-4-yl]-piperidin-4-yl]propylphosphonic acid]",< 10000
10,"O=P(O)(O)c1ccc(CNc2ncnc3cn[nH]c23)cc1 [Compound 12, 4-([1H-pyrazolo[4,3-d]pyrimidin-7-ylamino]methyl)phenyl-phosphonic acid]",< 100
11,"NC(=O)c1n[nH]c2c(NCc3ccc(P(=O)(O)O)cc3)ncnc12 [Compound 14, 4-[([3-carbamoyl-1H-pyrazolo[4,3-d]pyrimidin-7-yl]amino)methyl]-phenylphosphonic acid]",< 1000
12,"CC(=O)Nc1csc2c(NCc3ccc(P(=O)(O)O)cc3)ncnc12 [Compound 15, 4-[([7-acetamidothieno[3,2-d]pyrimidin-4-yl]amino)methyl]-phenylphosphonic acid]",< 100
13,"O=P(O)(O)c1ccc(CNc2ncnc3ccsc23)cc1 [Compound 16, 4-([thieno[3,2-d]pyrimidin-4-ylamino]methyl)phenyl-phosphonic acid]",< 100
14,"CC(C)c1nc(NCc2ccc(P(=O)(O)O)cc2)c2c(cnn2C)n1 [Compound 17, 4-(((5-isopropyl-1-methyl-1H-pyrazolo[4,3-d]pyrimidin-7-yl)amino)methyl)phenyl-phosphonic acid]",< 1000
15,"CC(C)c1nc(NCc2ccc(P(=O)(O)O)cc2)c2[nH]ncc2n1 [Compound 18, 4-[([5-isopropyl-1H-pyrazolo[4,3-d]pyrimidin-7-yl]amino)methyl]phenylphosphonic acid formic acid salt]",< 1000
